The assay has as its system CEM cells HIV-1 protection, formazan growth assay. The experiment in a line: NCI AIDS Antiviral Assay. As to conditions: for IC50: measured here: growth of uninfected CEM cells. A digest of the protocol:
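Human CEM cells, uninfected and HIV-1-infected, received five drug concentrations, and growth was read by soluble formazan assay. Compounds giving at least 50% protection were retested; reproducible 100% protection defined confirmed active.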

Each structure is given as a SMILES string. The source made the active and inactive calls.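 The calls were made as follows: active = compounds giving half or more protection of infected cells from virus-caused growth loss, again on retest; inactive = the rest.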

For the compound `O=c1[nH]c2cc3c(cc2n2cccc12)oc1ccccc13`, the EC50 is greater than 200 µM and the IC50 is greater than 200 µM.
In the case of `Cn1c2ccccc2c(=O)c2c([N+](=O)[O-])ccc(NCCN)c21`, the result was inactive.
For `NC1CSc2ccccc2NC1=O` (stereo not drawn), the EC50 is greater than 407 µM and the IC50 was greater than 407 µM.
Take `CC1=C(\C=C/C(C)=C/C=C/C(C)=C/C=N/N=C/C=C(C)\C=C\C=C(C)/C=C/C2=C(C)CCCC2(C)C)C(C)(C)CCC1`: the EC50 is greater than 200 µM and the IC50 turned out to be 45.7 µM.
For the compound `COc1ccc2nc3c([N+](=O)[O-])ccc(NCCN(C)C)c3c(N)c2c1`, the EC50 is greater than 200 µM and the IC50 came to 0.794 µM.
As to `Cc1csc2[nH]c3ccccc3[n+]12`, the result was inactive.
In the case of `c1ccc(C2=C(c3ccccc3)/N=N/C(c3ccccc3)=C(c3ccccc3)\N=N\2)cc1`, the EC50 was greater than 200 µM and the IC50 is greater than 200 µM.
As to `CC(C)(C)[Si](C)(C)OC1C(CC#N)C(CO)OC1n1ccc(=O)[nH]c1=O` (stereo not drawn), the EC50 is greater than 200 µM and the 50% inhibitory concentration (IC50) was greater than 200 µM.
On to `C=C(C)[C@@]1(O)CCC[C@H]1NC(=O)OC(C)(C)C`, for which the EC50 was greater than 200 µM and the IC50 is greater than 200 µM.
In the case of `COc1ccc(Sc2ccccc2[N+](=O)[O-])cc1`, the result was inactive.
The same measure, in the same setting: to `COc1cc2c(cc1OC)[C@@H]([C@H](O)c1ccccc1)NCC2` belongs “inactive”.
Consider `CC1(C)C2CCC(N)(C2)C1O` (stereo not drawn), for which the EC50 is greater than 200 µM and the IC50 is greater than 200 µM.
Turning to `O=C(N/N=C(/c1nc2ccc([N+](=O)[O-])cc2[nH]c1=O)C(O)c1ccc([N+](=O)[O-])cc1)c1ccncc1` (stereo not drawn), the EC50 is greater than 138 µM and the IC50 came to 129 µM.
Regarding `CCOC(=O)/C(=C\c1ccc(N(CCC#N)CCC#N)cc1)NC(=O)c1cc([N+](=O)[O-])ccc1Cl`, the EC50 is greater than 10.5 µM and the IC50 is greater than 10.5 µM.
Take `O=C1C(c2ccc([N+](=O)[O-])cc2)=C(Cl)C(=O)c2c(O)cccc21`: the EC50 is greater than 398 µM and the IC50 came out at 8.71 µM.
As to `CCC(NC(=O)c1ccccc1SC(=O)CCCC[n+]1ccccc1)C(N)=O` (stereo not drawn), the EC50 was greater than 3.8 µM.
As for `CC(C)=CCC/C(C)=C/CC/C(C)=C/Cc1c[nH]c2ccccc12`, the EC50 is greater than 6.17 µM and the IC50 is greater than 6.17 µM.
Take `COc1ccc(C2C(Cl)C(=O)N2NC(=O)c2ccccc2O)cc1` (stereo not drawn): the EC50 was greater than 145 µM and the IC50 was greater than 145 µM.
On to `COc1cc(NC(C)=O)c(OC)cc1Cl`, for which the result was inactive.
Consider `Cc1cc(C(=O)CSC(=S)SC(C)(C)C)ccc1Cl`, for which the EC50 was greater than 30.2 µM and the IC50 is greater than 30.2 µM.
Regarding `COc1cc(OC)c(C(=O)[O][Sn]([c]2ccccc2)([c]2ccccc2)[c]2ccccc2)cc1OC`, the EC50 is greater than 200 µM and the IC50 is 0.0631 µM.
The corresponding values for `CCOC(=O)NC(Nc1c(F)c(F)c(F)c(F)c1F)(C(F)(F)F)C(F)(F)F` are greater than 200 µM and 141 µM.
With `Cc1ccc(NC(=O)CCC(=O)C2CC(=O)CCC2=O)cc1C` (stereo not drawn), the EC50 was greater than 794 µM and the IC50 was greater than 794 µM.
In the case of `CSC12c3cc(C)n(-c4ccc([N+](=O)[O-])cc4)c3CC(C)(C)CN1C(=O)C2Oc1ccccc1` (stereo not drawn), the EC50 was greater than 200 µM and the IC50 was 49 µM.
As for `O=C1c2c(O)ccc(O)c2C(=O)c2c(NCCNC(=O)C(O)C(O)C(O)C(O)CO)ccc(NCCNC(=O)C(O)C(O)C(O)C(O)CO)c21` (stereo not drawn), the EC50 was greater than 100 µM and the IC50 was 0.0316 µM.
Regarding `Cc1nc2c(=O)[nH]cnc2o1`, the EC50 is greater than 575 µM and the IC50 is greater than 575 µM.
Take `NC(N)=N/N=C/c1c(-c2ccc(Cl)c(Cl)c2Cl)nc2sccn12`: the EC50 is 0.191 µM and the IC50 came out at 1.07 µM.
On to `CN(C)CCNC(=O)c1cc([N+](=O)[O-])cc2c1Oc1ccccc1O2`, for which the EC50 was greater than 200 µM and the IC50 is 10.5 µM.
With `[N-]=[N+]=Nc1c(C=O)c(=O)n2c3c(cccc13)CCC2`, the EC50 was greater than 200 µM and the IC50 worked out at 4.27 µM.
Regarding `O=[N+]([O-])/C(Cl)=C(\Nc1ccccc1)C(Cl)=C(Cl)Cl`, the EC50 was greater than 200 µM and the IC50 was 32.4 µM.
On to `COc1ccc(/C=C2\CN(C)Cc3c2nc(N)nc3-c2ccc(OC)cc2)cc1`, for which the EC50 was greater than 18.6 µM and the IC50 was greater than 18.6 µM.
Consider `O=c1oc2c3ccccc3c3ccccc3c2c2oc3c4ccccc4c4ccccc4c3c12`, for which the EC50 was 0.0209 µM and the IC50 came out at 0.955 µM.
The corresponding values for `CCCCCC=C(c1cc(Cl)c(OC)c(C(=O)OC)c1)c1cc(Cl)c(OC)c(C(=O)OC)c1` are 17.8 µM and 28.8 µM.
`CCOC(=O)CC1NCCc2cc(OC)c(OC)c([N+](=O)[O-])c21` (stereo not drawn): the result was inactive.
Same read-out and setting: to `COC1=CC(=O)c2c(O)c3c(c(O)c2C1=O)C[C@](C)(O)C[C@@H]3O` belongs “inactive”.
Consider `COC(=O)/C=C1\CC(C)C2=C(N1)SCC2=O` (stereo not drawn), for which the EC50 is greater than 355 µM and the IC50 was found to be 138 µM.
`Cc1ccc(SSc2ccc([N+](=O)[O-])cc2[N+](=O)[O-])cc1`: the EC50 was greater than 200 µM and the IC50 was determined as 9.12 µM.
As to `COc1cccc2c1C1(O)C2CCCC12OCCCO2` (stereo not drawn), the EC50 was greater than 200 µM and the IC50 was greater than 200 µM.
With `O=C(C1OC1c1ccc(Cl)cc1)C12CC3CC(CC(C3)C1)C2` (stereo not drawn), the EC50 is greater than 200 µM and the IC50 was determined as 18.2 µM.
On to `C[C@@H]1C2(O)CC34CC(=O)OC3(C[C@@H](O)[C@H]4C)C1(C)CO2` (stereo partly drawn), for which the EC50 was greater than 891 µM and the IC50 is greater than 891 µM.
For `CCOC(=O)/C=C\[C@H]1OC(C)(C)O[C@H]1[C@H](O)[C@H]1COC(C)(C)O1`, the EC50 was greater than 20 µM and the IC50 was 11.2 µM.
`CON1C(=O)C(c2cccs2)=C2SCC=C21`: the EC50 is greater than 170 µM and the IC50 stood at 4.27 µM.
On to `Cc1cc2c(=O)c3ccc(Cl)cc3[nH]c2c(C(=O)O)c1C`, for which the result was inactive.
As for `O=C(Nc1ccc(S(=O)(=O)Nc2nccs2)cc1)c1cccnc1Nc1cccc(Cl)c1`, the outcome was inactive.
`O=c1[nH]cc(S)c(=O)[nH]1`: the EC50 was 151 µM and the IC50 is greater than 200 µM.
With `Cc1cc(/C(C#N)=C/c2ccc(N(C)C)cc2)cc(C)c1[N+](=O)[O-]`, the EC50 is greater than 2 µM and the half-maximal inhibitory concentration (IC50) turned out to be 0.105 µM.
Regarding `CC1(C)Oc2ccccc2N2O[C@@H]3C(=O)N(c4ccccc4)C(=O)[C@@H]3C21c1ccccc1` (stereo partly drawn), the outcome was inactive.
Still for that read-out and setting: to `O=C(O)Cc1cc(=O)[nH]c2c1/C(=N/O)CCC2` belongs “inactive”.
As to `Nc1ncnc2c1ccn2C/C=C/CO`, the EC50 is greater than 200 µM and the IC50 was greater than 200 µM.
Take `COc1cc(C2SC(N)=Nc3c2c(C)nn3C(=O)c2ccc(Cl)cc2)cc(OC)c1OC` (stereo not drawn): the EC50 is greater than 200 µM and the half-inhibitory concentration (IC50) was greater than 200 µM.
`Nn1c(-c2ccccc2)nn(C(=O)c2ccccc2)c1=O`: the EC50 is greater than 200 µM and the IC50 was greater than 200 µM.
As for `c1ccc(Nc2nnc(CCCCCCCCc3nnc(Nc4ccccc4)o3)o2)cc1`, the EC50 is greater than 200 µM and the IC50 amounted to 107 µM.
On to `CNCCN=c1ccc2c3c1c(O)c1c(O)ccc(=O)c1c3[nH]n2CCNCCO`, for which the EC50 is greater than 112 µM and the IC50 amounted to 0.347 µM.
For `CCOC(=O)Cc1nc(Cl)c2c(C)c(C)sc2n1`, the EC50 is greater than 174 µM and the IC50 was 38.9 µM.
With `O=C(O)C1CC2C=CCC(C2)C1` (stereo not drawn), the outcome was inactive.
As for `CCOC(=O)C1=C(C)N2CCOC2(C)C(C(=O)OC)C1c1cccc(Cl)c1` (stereo not drawn), the EC50 is greater than 66.1 µM and the IC50 was greater than 66.1 µM.
On to `Cc1cc(NS(=O)(=O)c2ccc(NC(=O)c3cccc4c(Nc5ccc(S(=O)(=O)N=C(N)N)cc5)c5ccccc5nc34)cc2)no1`, for which the EC50 was 52.5 µM and the IC50 was determined as 53.7 µM.
`COc1ccc(-n2nnnc2C2(Nc3ccccc3)CCN(Cc3ccccc3)CC2)cc1`: the EC50 is greater than 200 µM and the IC50 is greater than 200 µM.
As to `O=C(c1ccccc1)[C@H]1Nc2ccc(Cl)cc2[C@H]2CCC[C@@H]12`, the EC50 is greater than 4.68 µM and the IC50 was greater than 4.68 µM.
For the compound `COC1CC(n2ccc(=O)[nH]c2=O)OC1CO` (stereo not drawn), the EC50 was greater than 200 µM and the IC50 was greater than 200 µM.
For the compound `O=C1c2ccccc2C(=O)c2c(NCCNC(=O)C3CCCN3)ccc(NCCNC(=O)C3CCCN3)c21` (stereo not drawn), the EC50 is greater than 151 µM and the IC50 came out at 22.4 µM.
Turning to `CCCCCCCCCCn1cccc1/C=C/c1ccc(/C=C/c2cccn2CCCCCCCCCC)cc1`, the result was inactive.
As for `CC(=O)OC1CC[C@]2(C)C3CC[C@@]4(C)C(CCC4[C@H](C)CCCC(C)C)[C@@H]3CCC2(Br)C1` (stereo partly drawn), the result was inactive.
For the compound `CCOC(OCC)N1C(=O)C2(C(OCC)OCC)CC3C(OC(=O)N3N)c3cccc1c32` (stereo not drawn), the outcome was inactive.
On to `C/C(=N/Nc1ccc([N+](=O)[O-])cc1[N+](=O)[O-])c1ccccc1`, for which the EC50 was greater than 3.47 µM and the IC50 is greater than 3.47 µM.
Regarding `C1=C(N2CCOCC2)N(c2ccccc2)c2ccccc2N=C1N1CCCC1`, the outcome was inactive.
Regarding `CC(=O)N1CCCN(C)/C1=N/[N+](=O)[O-]`, the EC50 was greater than 200 µM and the IC50 was greater than 200 µM.
Take `COCC[N+](CCNC(=O)c1cccc2c(N)c3cccc(C)c3nc12)(CCOC)Cc1ccc([N+](=O)[O-])cc1`: the EC50 was greater than 200 µM and the IC50 was found to be 13.2 µM.
With `CCCCC[C@@H]1CCCC2C1CC[C@@H](CCCCCI)N2C(=O)OCC(Cl)(Cl)Cl` (stereo partly drawn), the outcome was inactive.
Turning to `COc1cccc(C=NC23CC4CC(CC(C4)C2)C3)c1`, the EC50 was greater than 69.2 µM and the IC50 is greater than 69.2 µM.
Regarding `CC1=C(C(=S)Nc2ccc(Cl)c(C(=O)OC(C)C)c2)SCCO1`, the EC50 was 0.024 µM and the IC50 came out at 64.6 µM.
Take `Cc1ccc(-c2cc(=O)c3cc(C)c(C)c(C(=O)O)c3o2)cc1N`: the result was inactive.
`Cc1cccc(C2ON=C(c3ccccc3)N2C23CC4CC(CC(C4)C2)C3)c1` (stereo not drawn): the EC50 is greater than 200 µM and the IC50 turned out to be 49 µM.
As for `O=C1C(c2ccccc2Cl)[C@H]2CC=C[C@H]2N1O` (stereo partly drawn), the outcome was inactive.

By EC50 is commonly meant the concentration that produces a half-maximal response. As usually defined, the IC50 is the concentration needed to halve the response being measured.

Values taken from PubChem BioAssay AID179 (DTP/NCI, 2004).
